In the supplement of paper PMC10307832:

Columns and labels:
Experiment in all cases: relative viability (nuclei count vs DMSO), 5 days (fraction); higher = more cells survive
IPA-3 + OSI-027 = compound: C1=CC=C2C(=C1)C=CC(=C2SSC3=C(C=CC4=CC=CC=C43)O)O [IPA-3] + COc1cccc2cc(-c3nc([C@H]4CC[C@H](C(=O)O)CC4)n4ncnc(N)c34)[nH]c12 [OSI-027] (partner 0.5 µM)
How it was run: (§1)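 The day after seeding in 1536-well plates, lung cancer cell lines were treated by pin tool with a single drug, or with a fixed anchor-drug dose together with five library-drug doses (not always all listed) in √10 steps. After 5 days, a combined fix-and-stain solution (final 0.05% Triton X-100, 1% formaldehyde, 1 ug/ml Hoechst) was added. Nuclei counted on 4× images gave relative viability as treated counts over vehicle counts, reported as the median of duplicate plates.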

Doramapimod + AZD7762 = compound: Cc1ccc(-n2nc(C(C)(C)C)cc2NC(=O)Nc2ccc(OCCN3CCOCC3)c3ccccc23)cc1 [Doramapimod] + NC(=O)Nc1cc(-c2cccc(F)c2)sc1C(=O)N[C@H]1CCCNC1 [AZD7762] (partner 0.2 µM)
How it was run: as §1

RAF265 + OSI-027 = compound: Cn1c(Nc2ccc(C(F)(F)F)cc2)nc2cc(Oc3ccnc(-c4ncc(C(F)(F)F)[nH]4)c3)ccc21 [RAF265] + COc1cccc2cc(-c3nc([C@H]4CC[C@H](C(=O)O)CC4)n4ncnc(N)c34)[nH]c12 [OSI-027] (partner 0.5 µM)
How it was run: as §1

RAF265 + Phenformin = compound: Cn1c(Nc2ccc(C(F)(F)F)cc2)nc2cc(Oc3ccnc(-c4ncc(C(F)(F)F)[nH]4)c3)ccc21 [RAF265] + N=C(N)NC(=N)NCCc1ccccc1 [Phenformin] (partner 250 µM)
How it was run: as §1

Cell Line: NCI-H1734
- relative viability (IPA-3 + OSI-027; first compound 0.2 µM): 0.619
- relative viability (IPA-3 + OSI-027; first compound 0.6325 µM): 0.632
- relative viability (IPA-3 + OSI-027; first compound 2 µM): 0.507
- relative viability (IPA-3 + OSI-027; first compound 6.325 µM): 0.612
- relative viability (IPA-3 + OSI-027; first compound 20 µM): 0.56
- relative viability (Doramapimod + AZD7762; first compound 0.02 µM): 0.418
- relative viability (Doramapimod + AZD7762; first compound 0.06325 µM): 0.608
- relative viability (Doramapimod + AZD7762; first compound 0.2 µM): 0.498
- relative viability (Doramapimod + AZD7762; first compound 0.6325 µM): 0.75
- relative viability (Doramapimod + AZD7762; first compound 2 µM): 0.434
- relative viability (RAF265 + OSI-027; first compound 0.01 µM): 0.604
- relative viability (RAF265 + OSI-027; first compound 0.03162 µM): 0.54
- relative viability (RAF265 + OSI-027; first compound 0.1 µM): 0.38
- relative viability (RAF265 + OSI-027; first compound 0.3162 µM): 0.381
- relative viability (RAF265 + OSI-027; first compound 1 µM): 0.247
- relative viability (RAF265 + Phenformin; first compound 0.01 µM): 0.458
- relative viability (RAF265 + Phenformin; first compound 0.03162 µM): 0.376
- relative viability (RAF265 + Phenformin; first compound 0.1 µM): 0.32
- relative viability (RAF265 + Phenformin; first compound 0.3162 µM): 0.317
- relative viability (RAF265 + Phenformin; first compound 1 µM): 0.257

Cell Line: A-427
- relative viability (IPA-3 + OSI-027; first compound 0.2 µM): 0.432
- relative viability (IPA-3 + OSI-027; first compound 0.6325 µM): 0.438
- relative viability (IPA-3 + OSI-027; first compound 2 µM): 0.491
- relative viability (IPA-3 + OSI-027; first compound 6.325 µM): 0.388
- relative viability (IPA-3 + OSI-027; first compound 20 µM): 0.451
- relative viability (Doramapimod + AZD7762; first compound 0.02 µM): 0.77
- relative viability (Doramapimod + AZD7762; first compound 0.06325 µM): 0.732
- relative viability (Doramapimod + AZD7762; first compound 0.2 µM): 0.743
- relative viability (Doramapimod + AZD7762; first compound 2 µM): 0.561
- relative viability (RAF265 + OSI-027; first compound 0.01 µM): 0.4
- relative viability (RAF265 + OSI-027; first compound 0.03162 µM): 0.334
- relative viability (RAF265 + OSI-027; first compound 0.1 µM): 0.312
- relative viability (RAF265 + OSI-027; first compound 0.3162 µM): 0.18
- relative viability (RAF265 + OSI-027; first compound 1 µM): 0.129
- relative viability (RAF265 + Phenformin; first compound 0.01 µM): 0.361
- relative viability (RAF265 + Phenformin; first compound 0.03162 µM): 0.266
- relative viability (RAF265 + Phenformin; first compound 0.1 µM): 0.307
- relative viability (RAF265 + Phenformin; first compound 0.3162 µM): 0.204
- relative viability (RAF265 + Phenformin; first compound 1 µM): 0.124

Cell Line: RERF-LC-KJ
- relative viability (IPA-3 + OSI-027; first compound 0.2 µM): 0.668
- relative viability (IPA-3 + OSI-027; first compound 0.6325 µM): 0.563
- relative viability (IPA-3 + OSI-027; first compound 2 µM): 0.58
- relative viability (IPA-3 + OSI-027; first compound 6.325 µM): 0.554
- relative viability (IPA-3 + OSI-027; first compound 20 µM): 0.619
- relative viability (Doramapimod + AZD7762; first compound 0.02 µM): 0.897
- relative viability (Doramapimod + AZD7762; first compound 0.06325 µM): 1.15
- relative viability (Doramapimod + AZD7762; first compound 0.2 µM): 0.961
- relative viability (Doramapimod + AZD7762; first compound 0.6325 µM): 0.703
- relative viability (Doramapimod + AZD7762; first compound 2 µM): 0.889
- relative viability (RAF265 + OSI-027; first compound 0.01 µM): 0.548
- relative viability (RAF265 + OSI-027; first compound 0.03162 µM): 0.52
- relative viability (RAF265 + OSI-027; first compound 0.1 µM): 0.423
- relative viability (RAF265 + OSI-027; first compound 0.3162 µM): 0.349
- relative viability (RAF265 + OSI-027; first compound 1 µM): 0.381
- relative viability (RAF265 + Phenformin; first compound 0.01 µM): 0.469
- relative viability (RAF265 + Phenformin; first compound 0.03162 µM): 0.42
- relative viability (RAF265 + Phenformin; first compound 0.1 µM): 0.389
- relative viability (RAF265 + Phenformin; first compound 0.3162 µM): 0.408
- relative viability (RAF265 + Phenformin; first compound 1 µM): 0.376

Cell Line: NCI-H727
- relative viability (IPA-3 + OSI-027; first compound 0.2 µM): 0.851
- relative viability (IPA-3 + OSI-027; first compound 0.6325 µM): 0.703
- relative viability (IPA-3 + OSI-027; first compound 2 µM): 0.546
- relative viability (IPA-3 + OSI-027; first compound 6.325 µM): 0.613
- relative viability (IPA-3 + OSI-027; first compound 20 µM): 0.634
- relative viability (Doramapimod + AZD7762; first compound 0.02 µM): 0.605
- relative viability (Doramapimod + AZD7762; first compound 0.06325 µM): 0.576
- relative viability (Doramapimod + AZD7762; first compound 0.2 µM): 0.642
- relative viability (Doramapimod + AZD7762; first compound 0.6325 µM): 0.487
- relative viability (Doramapimod + AZD7762; first compound 2 µM): 0.528
- relative viability (RAF265 + OSI-027; first compound 0.01 µM): 0.7
- relative viability (RAF265 + OSI-027; first compound 0.03162 µM): 0.8
- relative viability (RAF265 + OSI-027; first compound 0.1 µM): 0.487
- relative viability (RAF265 + OSI-027; first compound 0.3162 µM): 0.438
- relative viability (RAF265 + OSI-027; first compound 1 µM): 0.347
- relative viability (RAF265 + Phenformin; first compound 0.01 µM): 0.531
- relative viability (RAF265 + Phenformin; first compound 0.03162 µM): 0.502
- relative viability (RAF265 + Phenformin; first compound 0.1 µM): 0.452
- relative viability (RAF265 + Phenformin; first compound 0.3162 µM): 0.341
- relative viability (RAF265 + Phenformin; first compound 1 µM): 0.398
